Results published in patent US4272524A, “N-Acyl-muramyl peptide derivatives having anti-infectious infections properties” (priority 1976, dated 1981).

System: Klebsiella pneumoniae
Test: Response of mice to an intramuscular infection by 10^4 Klebsiella pneumoniae (Table 2)
Type: in vivo
[1] = i.v. hour + 1 after inoculation, 100 μg per animal
[2] = per os day-1, 2,000 μg per animal

Molecule	Survival (%) D + 3 (i.v. day-1, 100 μg per animal) [%]	Survival (%) D + 5 (i.v. day-1, 100 μg per animal) [%]	Survival (%) D + 8 (i.v. day-1, 100 μg per animal) [%]	Survival (%) D + 3 [1] [%]	Survival (%) D + 5 [1] [%]	Survival (%) D + 8 [1] [%]	Survival (%) D + 3 [2] [%]	Survival (%) D + 5 [2] [%]	Survival (%) D + 8 [2] [%]	Survival (%) D + 3 (s.c. day-1, 100 μg per animal) [%]	Survival (%) D + 5 (s.c. day-1, 100 μg per animal) [%]	Survival (%) D + 8 (s.c. day-1, 100 μg per animal) [%]
CC(=O)N[C@H]1C(O)O[C@H](CO)[C@@H](O)[C@@H]1O[C@H](C)C(=O)N[C@@H](C)C(=O)N[C@H](CCC(N)=O)C(=O)O (stereo partly drawn) [Ac--Mur--L-Ala--D-Glu--γ(NH2)]	92	79	67									
Ac--Mur--L-Ala--D-Glu-- γ(L-Ala)--NH2 [Ac--Mur--L-Ala--D-Glu--(L-Ala)--NH2]	100	94	63									
Ac--Mur--L-Ala--D-Glu-- γ(L-Lys)--NH2 [Ac--Mur--L-Ala--D-Glu--(L-Lys)--NH2]	100	93	73	91	78	66	81	81	56	100	81	75
Ac--Mur--L-Ala--D-Glu-- γ(L-Lys--L-Ala)--NH2 [Ac--Mur--L-Ala--D-Glu--(L-Lys--L-Ala)]	96	79	71									
